Laboratory results taken from patent US8952024B2, “Herbicidal pyrimidone derivatives” (E I du Pont de Nemours and Company, priority 2009, dated 2015).

Columns and labels:
Test in all cases: Test B pre-/postemergence plant response
Format in all cases: in vivo
[1] = system: Italian ryegrass (Lolium multiflorum)
Excerpt: (§1) Seeds of plant species selected from blackgrass (Alopecurus myosuroides), downy bromegrass (Bromus tectorum), green foxtail (Setaria viridis), Italian ryegrass (Lolium multiflorum), wheat (Triticum aestivum), wild oat (Avena fatua), deadnettle (henbit deadnettle, Lamium amplexicaule), galium (catchweed bedstraw, Galium aparine), bermudagrass (Cynodon dactylon), Surinam grass (Brachiaria decumbens), cocklebur (Xanthium strumarium), corn (Zea mays), large crabgrass (Digitaria sanguinalis), woolly cupgrass (Eriochloa villosa), giant foxtail (Setaria faberii), goosegrass (Eleusine indica), johnsongrass (Sorghum halepense), kochia (Kochia scoparia), lambsquarters (Chenopodium album), morningglory (Ipomoea coccinea), nightshade (eastern black nightshade, Solanum ptycanthum), yellow nutsedge (Cyperus esculentus), pigweed (Amaranthus retroflexus), ragweed (common ragweed, Ambrosia elatior), Russian thistle (Salsola kali), soybean (Glycine max), sunflower (common oilseed sunflower, Helianthus annuus) and velvetleaf (Abutilon theophrasti) were planted into a blend of loam soil and sand and treated preemergence with test compounds formulated in a non-phytotoxic solvent mixture which included a surfactant.
(§2) At the same time, plants selected from these crop and weed species and also winter barley (Hordeum vulgare), canarygrass (Phalaris minor), chickweed (Stellaria media) and windgrass (Apera spica-venti) were planted in pots containing Redi-Earth® planting medium (Scotts Company, 14111 Scottslawn Road, Marysville, Ohio 43041) comprising spaghnum peat moss, vermiculite, wetting agent and starter nutrients and treated with postemergence applications of some of the test chemicals formulated in the same manner. Plants ranged in height from 2 to 18 cm (1- to 4-leaf stage) for postemergence treatments.
(§3) Treated plants and controls were maintained in a greenhouse for 13 to 15 days, after which time all treated plants were visually evaluated and compared to controls. Plant response ratings, summarized in Table B, are based on a scale of 0 to 100 where 0 is no effect and 100 is complete control. A dash (-) response means no test result.

[2] = system: Surinam grass (Brachiaria decumbens)
Excerpt: as §1, §2, §3

[3] = system: bermudagrass (Cynodon dactylon)
Excerpt: as §1, §2, §3

[4] = system: blackgrass (Alopecurus myosuroides)
Excerpt: as §1, §2, §3

[5] = system: cocklebur (Xanthium strumarium)
Excerpt: as §1, §2, §3

[6] = system: corn (Zea mays)
Excerpt: as §1, §2, §3

[7] = system: downy bromegrass (Bromus tectorum)
Excerpt: as §1, §2, §3

[8] = system: green foxtail (Setaria viridis)
Excerpt: as §1, §2, §3

[9] = system: kochia (Kochia scoparia)
Excerpt: as §1, §2, §3

[10] = 250 g ai/ha, Preemergence, 0 to 100 scale
[11] = Postemergence, 31 g ai/ha, scale 0 to 100 (0 no effect, 100 complete control)
[12] = Postemergence, 62 g ai/ha, scale 0 (no effect) to 100 (complete control), 13 to 15 days
[13] = Postemergence, 125 g ai/ha, visual rating after 13 to 15 days, scale 0 (no effect) to 100 (complete control)
[14] = Postemergence, 250 g ai/ha, scale 0 to 100
[15] = Preemergence, 31 g ai/ha, scale 0 to 100 (0 no effect, 100 complete control)
[16] = Preemergence, 62 g ai/ha, scale 0 to 100, 0 no effect, 100 complete control
[17] = Preemergence, 125 g ai/ha, 0 to 100 scale

Cc1cccc(-n2c(-c3ccccc3)ncc(C(=O)C3=C(O)CCCC3=O)c2=O)c1C [Compound 27]
Plant response rating, Ryegrass, Italian [1, 10]: 0
Plant response rating, Ryegrass, Italian [1, 11]: 0
Plant response rating, Ryegrass, Italian [1, 12]: 5
Plant response rating, Ryegrass, Italian [1, 13]: 5
Ryegrass, Italian plant response rating [1, 14]: 10
Plant response rating, Ryegrass, Italian [1, 15]: 0
Plant response rating, Ryegrass, Italian [1, 16]: 0
Ryegrass, Italian plant response rating [1, 17]: 0
Plant response rating, Surinam Grass [2, 10]: 95
Plant response rating, Surinam Grass [2, 11]: 50
Plant response rating, Surinam Grass [2, 12]: 70
Plant response rating, Surinam Grass [2, 13]: 80
Surinam Grass plant response rating [2, 14]: 80
Plant response rating, Surinam Grass [2, 15]: 0
Plant response rating, Surinam Grass [2, 16]: 20
Surinam Grass plant response rating [2, 17]: 60
Plant response rating, Bermudagrass [3, 10]: 100
Plant response rating, Bermudagrass [3, 11]: 70
Plant response rating, Bermudagrass [3, 12]: 90
Plant response rating, Bermudagrass ([3]; Postemergence, 125 g ai/ha, scale 0 to 100 (0 no effect, 100 complete control), 13 to 15 days): 100
Bermudagrass plant response rating [3, 14]: 100
Plant response rating, Bermudagrass [3, 15]: 70
Plant response rating, Bermudagrass [3, 16]: 98
Bermudagrass plant response rating [3, 17]: 100
Plant response rating, Blackgrass [4, 10]: 30
Plant response rating, Blackgrass [4, 11]: 0
Plant response rating, Blackgrass [4, 12]: 5
Plant response rating, Blackgrass [4, 13]: 45
Blackgrass plant response rating [4, 14]: 50
Plant response rating, Blackgrass [4, 15]: 0
Plant response rating, Blackgrass [4, 16]: 0
Blackgrass plant response rating [4, 17]: 10
Plant response rating, Cocklebur [5, 10]: 90
Plant response rating, Cocklebur [5, 11]: 90
Plant response rating, Cocklebur [5, 12]: 95
Plant response rating, Cocklebur [5, 13]: 95
Cocklebur plant response rating [5, 14]: 98
Plant response rating, Cocklebur [5, 15]: 0
Plant response rating, Cocklebur [5, 16]: 85
Cocklebur plant response rating [5, 17]: 85
Plant response rating, Corn [6, 10]: 0
Plant response rating, Corn [6, 11]: 35
Plant response rating, Corn [6, 12]: 40
Plant response rating, Corn [6, 13]: 50
Corn plant response rating [6, 14]: 70
Plant response rating, Corn [6, 15]: 0
Plant response rating, Corn [6, 16]: 0
Corn plant response rating [6, 17]: 0
Plant response rating, Bromegrass, Downy [7, 10]: 30
Plant response rating, Bromegrass, Downy [7, 11]: 5
Plant response rating, Bromegrass, Downy [7, 12]: 5
Plant response rating, Bromegrass, Downy [7, 13]: 20
Bromegrass, Downy plant response rating [7, 14]: 30
Plant response rating, Bromegrass, Downy [7, 15]: 0
Plant response rating, Bromegrass, Downy [7, 16]: 0
Bromegrass, Downy plant response rating [7, 17]: 0
Plant response rating, Foxtail, Green [8, 10]: 80
Plant response rating, Foxtail, Green [8, 11]: 80
Plant response rating, Foxtail, Green [8, 12]: 80
Plant response rating, Foxtail, Green [8, 13]: 80
Foxtail, Green plant response rating [8, 14]: 90
Plant response rating, Foxtail, Green [8, 15]: 0
Plant response rating, Foxtail, Green [8, 16]: 30
Foxtail, Green plant response rating [8, 17]: 50
Plant response rating, Kochia [9, 10]: 100
Plant response rating, Kochia [9, 13]: 100
Kochia plant response rating [9, 14]: 100
